Assays:
Format in all cases: cell-based
Conditions in all cases: after 10, 20, 40 and 60 minutes at all dilutions 1:100, 1:200, 1:400, 1:800
[1] = system: Pseudomonas aeruginosa; assay: Antimicrobial screening by agar dilution, Pseudomonas aeruginosa
Experimental: (§1) The antibacterial properties of the synthesized compound 9-(2-hydroxypyridin-3-yl)-10-(2-hydroxyethyl)-3,6-diphenyl-3,4,6,7,9,10-hexahydroacridine1,8(2H,5H)-dione were studied by the method of agar dilution. Test solutions of each compound was prepared in concentration of 1% using dimethylformamide as a solvent then they are diluted in physiological solution to obtain the final experimental dilutions 1:100, 1:200, 1:400, 1:800. The effect of these substances are compared with furacillin in a controllable study. The testing microbes used were gram positive bacteria Staphylococcus aureus, gram negative bacteria Pseudomonas aeruginosa and Escherichia coli and Candida albicans fungus. The experiments used for this survey were meat-pentonlu agar (EPA) for cultivation of bacteria and Saburo environment for the fungus. Each experiment used 1 mL of test solution on each plate […]. Two drops of emulsified with microbes feel were added. All experimental samples were taken from the agar after 10, 20, 40, 60 minutes in the environment on the basis of Patrk planted. The bacteria were cultivated at a temperature of 37° C. for 1 day and the mushroom was kept in a thermostat for 2 hours at a temperature of 28° C. Then results were checked.

[2] = system: Staphylococcus aureus; assay: Antimicrobial screening by agar dilution, Staphylococcus aureus
Experimental: as §1

[3] = system: Candida albicans; assay: Antimicrobial screening by agar dilution, Candida albicans
Experimental: as §1

[4] = system: Escherichia coli; assay: Antimicrobial screening by agar dilution, Escherichia coli
Experimental: as §1

Measured: inhibition activity (in words)

O=C1CC(c2ccccc2)CC2=C1C(c1cccnc1O)C1=C(CC(c3ccccc3)CC1=O)N2CCO (stereo not shown) [9-(2-hydroxypyridin-3-yl)-10-(2-hydroxyethyl)-3,6-diphenyl-3,4,6,7,9,10-hexahydroacridine1,8(2H,5H)-dione]
highest inhibition activity: [1] | [2] | [3] | [4]
